Measured values: US5298509A, “Octahydronaphthoquinolizines, and methods of making and using thereof” (priority 1992, dated 1994)
Entries after “also recorded” stand apart in the source; their conditions may differ. Where two headings read alike, the source gives them in different places.

Experiments:
[1] = test system: drug-resistant patients; details: human, in vivo; cited from earlier work
[2] = test system: sham-feeding rat; assay: Sucrose ingestion (sham intake) in the sham-feeding rat; format: in vivo; details: 20% sucrose, 30-min test, N=6
Source text: As a non-limiting example, distinguishing between sigma receptor modulation and dopamine modulation may be accomplished using a D2 distinguishing assay, such as a behavioral assay system which discriminates the effects of dopamine D2 antagonists from sigma modulators or agents. A non-limiting example of a D2 /sigma distinguishing assay system involves quantification of ingestion of sucrose in a sham-feeding rat, where dopamine plays a critical role in the mediation of this behavior. See Schneider, L. H. et al. Eur. J. Pharmacol. 186:61-70 (1990) which is entirely incorporated herein by reference. […] The principal factor which compels the animal to maintain ingestion is the sweet taste of the sucrose solution; the involvement of the ascending mesolimbic dopamine system in this effect appears to be manifested as a modulation of the hedonic potency of the orosensory event (sweet taste). […] Neurosci. Abstr. 16:1028 (1990) which references are incorporated entirely herein by reference.
Differentiation of sigma and dopamine activities are provided by a behavioral assay system which effectively discriminates the effects of dopamine D-2 antagonists from sigma agents. The assay system involves quantification of ingestion of sucrose in the sham-feeding rat.

[3] = test system: dopamine D2 receptor; details: cited from earlier work
[4] = test system: sigma receptor; details: cited from earlier work
[5] = test system: sham-feeding rat; assay: Microstructural analysis of licking/ingestive behavior in the sham-feeding rat; format: in vivo; details: SKF 5 mg/kg, BMY 4 mg/kg, HAL 0.1 mg/kg, i.p.
Source text: Motoric components of the ingestive behavior may be differentiated from the "rewarding", sensory components by the use of microstructural analysis, a computer-controlled device which records the time at which each animal licks, to the nearest fractional millisecond. Analysis of licking and ingestive behavior in bursts is monitored through a fixed time test such that sigma agents may influence ingestive behavior either through the motor output systems or through nigrostriatal dopamine systems. The role for sigma sites in motor output systems include those muscles which are associated with licking, biting, and swallowing.
This consists of the use of a computer-controlled device which records the time at which each animal licks, to the nearest fractional millisecond. This then allows analysis of licking and ingestive behavior in bursts through a 30-minute test.
Using this behavioral assay system, with peripheral administration of the various selective drugs, rats (N=6) received 20% sucrose during a 30-min test, such that there was no effect of the sigma agents (+)-SKF 10,047 (5 mg/kg, i.p.; SKF) or BMY 14802 (4 mg/kg, i.p.; BMY) depending upon the volume of the sucrose solution which was ingested. […] These changes are attributed to a shift in the mean of the distribution histogram of interlick intervals. […] The shift in interlick interval distribution is expected to arise from occupancy of hindbrain sigma sites, possibly in the reticular formation, which are involved in definition of the lick rate in the rat.

| Structure (SMILES) | agranulocytosis / side effects (in words) [1] | effect on volume of sucrose solution ingested (in words) ([2]; (+)-SKF 10,047 5 mg/kg i.p., BMY 14802 4 mg/kg i.p., haloperidol 0.1 mg/kg i.p.) | sham intake of the sucrose solution ([2]; haloperidol 0.1 mg/kg, i.p., vs 33.7±2.7 ml, p<0.001) | activity at dopamine D2 receptor (in words) [3] | affinity for sigma receptors (in words) [4] | affinity for sigma receptors (in words) ([4]; listed as (^3 H)-haloperidol) | affinity for sigma receptors (in words) ([4]; listed as Haloperidol) | mean lick cluster size (in words) [5] | interlick intervals (in words) ([5]; range 0-250 msec) |
| --- | --- | --- | --- | --- | --- | --- | --- | --- | --- |
| CN1CCN(C2=Nc3cc(Cl)ccc3Nc3ccccc32)CC1 [clozapine] | irreversible, potentially fatal agranulocytosis in a minority of patients; also recorded: less motor side effects; also recorded: severe and fatal agranulocytosis | – | – | – | – | – | – | – | – |
| O=C(CCCN1CCC(O)(c2ccc(Cl)cc2)CC1)c1ccc(F)cc1 [haloperidol] | – | highly significant reduction | 15 ± 2.7 mL | high affinity | high affinity | labeled with high affinity | very high affinity | not SKF or HAL | not SKF or HAL |
